Target: T1, NEP (Homo sapiens (Human), UniProt P08473)
Experiment: not given
Details: relative to 21a (succinic acid substituent); quoted from Ksander et al.; cited from earlier work

Compound | decrease in activity
C[C@H](C[C@@H](Cc1ccc(-c2ccccc2)cc1)NC(=O)CCCC(=O)O)C(=O)O [Example 21e] | 18 fold
C[C@H](C[C@@H](Cc1ccc(-c2ccccc2)cc1)NC(=O)CCCCC(=O)O)C(=O)O [Example 21f] | 65 fold
C[C@H](CC(Cc1ccc(-c2ccccc2)cc1)NC(=O)CC(=O)O)C(=O)O (stereo partly drawn) [Example 21g] | 18 fold

Target: T1, NEP
Experiment: Assay 1: in vitro enzyme inhibition assay at human NEP (fluorogenic peptide substrate)
Assay type: biochemical
Details: pKi values at human NEP, comparative examples, exact values

Ki | Compound
200 nM | O=C(O)CC(=O)N[C@H](Cc1ccc(-c2ccccc2)cc1)CC(O)C(=O)O (stereo partly drawn) [Comparative Compound C, (R)-5-Biphenyl-4-yl-4-(2-carboxyacetylamino)-2-hydroxypentanoic Acid]
39.8 nM | O=C(O)CCC(=O)N[C@H](Cc1ccc(-c2ccccc2)cc1)CC(O)C(=O)O (stereo partly drawn) [Comparative Compound D, (R)-5-Biphenyl-4-yl-4-(3-carboxypropionylamino)-2-hydroxypentanoic Acid]
50.1 nM | O=C(O)CCCC(=O)N[C@H](Cc1ccc(-c2ccccc2)cc1)CC(O)C(=O)O (stereo partly drawn) [Comparative Compound E, (R)-5-Biphenyl-4-yl-4-(4-carboxybutyrylamino)-2-hydroxypentanoic Acid]
6.31 nM | O=C(O)CC(=O)N[C@H](Cc1ccc(-c2ccccc2)cc1)C[C@@H](CO)C(=O)O [Comparative Compound F, (2S,4S)-5-Biphenyl-4-yl-4-(2-carboxy-acetylamino)-2-hydroxymethylpentanoic Acid]
1 nM | O=C(O)CCC(=O)N[C@H](Cc1ccc(-c2ccccc2)cc1)C[C@@H](CO)C(=O)O [Comparative Compound G, (2S,4S)-5-Biphenyl-4-yl-4-(3-carboxy-propionylamino)-2-hydroxymethylpentanoic Acid]
2.51 nM | O=C(O)CCCC(=O)N[C@H](Cc1ccc(-c2ccccc2)cc1)C[C@@H](CO)C(=O)O [Comparative Compound H, (2S,4S)-5-Biphenyl-4-yl-4-(4-carboxy-butyrylamino)-2-hydroxymethylpentanoic Acid]

Compound | Ki
O=C(O)CC(=O)N[C@H](Cc1ccc(-c2cccc(Cl)c2)cc1)C[C@@H](O)C(=O)O [Comparative Compound I, (2R,4R)-4-(2-Carboxy-acetylamino)-5-(3′-chloro-biphenyl-4-yl)-2-hydroxy-pentanoic Acid] | 3.98 nM
O=C(O)CCC(=O)N[C@H](Cc1ccc(-c2cccc(Cl)c2)cc1)C[C@@H](O)C(=O)O [Comparative Compound J, (2R,4R)-4-(3-Carboxy-propionylamino)-5-(3′-chloro-biphenyl-4-yl)-2-hydroxy-pentanoic Acid] | 0.316 nM
O=C(O)CCCC(=O)N[C@H](Cc1ccc(-c2cccc(Cl)c2)cc1)C[C@@H](O)C(=O)O [Comparative Compound K, (2R,4R)-4-(4-Carboxy-butyrylamino)-5-(3′-chloro-biphenyl-4-yl)-2-hydroxy-pentanoic Acid] | 0.501 nM
O=C(O)C(=O)N[C@H](Cc1ccc(-c2ccccc2)cc1)CC(O)C(=O)O (stereo partly drawn) [Example 1, (R)-5-Biphenyl-4-yl-2-hydroxy-4-(oxalylamino)pentanoic Acid] | 12.6 nM
O=C(O)C(=O)N[C@H](Cc1ccc(-c2cccc(Cl)c2)cc1)C[C@@H](O)C(=O)O [Example 2A, (2R,4R)-5-(3′-Chlorobiphenyl-4-yl)-2-hydroxy-4-(oxalylamino)pentanoic Acid] | 0.2 nM

Same assay, conditions: pKi values at human NEP, reported as ranges

pKi | Compound | Ki
 | CC(C)COC(=O)C(=O)N[C@H](Cc1ccc(-c2cc(Cl)ccc2Cl)cc1)C[C@@H](O)C(=O)O [Example 3D, (2R,4R)-5-(2′,5′-Dichlorobiphenyl-4-yl)-2-hydroxy-4-(isobutoxyoxalylamino)-pentanoic Acid] | ≤ 1 nM
 | O=C(O)C(=O)N[C@H](Cc1ccc(-c2ccccc2F)cc1)C[C@@H](CO)C(=O)O [Example 7B, (2S,4S)-5-(2′-Fluorobiphenyl-4-yl)-2-hydroxymethyl-4-(oxalylamino)pentanoic Acid] | ≤ 1 nM
 | O=C(O)C(=O)NN(Cc1ccc(-c2cc(Cl)ccc2F)cc1)C[C@@H](O)C(=O)O [Example 14A, (R)-3-[N-(5′-Chloro-T-fluorobiphenyl-4-ylmethyl)-N-oxalylhydrazino]-2-hydroxypropionic Acid] | ≤ 1 nM
 | CC(C)COC(=O)C(=O)NN(Cc1ccc(-c2cc(Cl)ccc2F)cc1)C[C@@H](O)C(=O)O [Example 14C, (R)-3-[N-(5′-Chloro-2′-fluorobiphenyl-4-ylmethyl)-N′-isobutoxyoxalylhydrazino]-2-hydroxypropionic Acid] | 1.26 to 10 nM
≥9 | (2R,4R)-5-(3,3′-Dichlorobiphenyl-4-yl)-2-hydroxy-4-(oxalylamino)pentanoic acid ethyl ester [Example 5-17] | 
≥9 | (R)-3-N-(3,5′-Dichloro-2′-fluorobiphenyl-4-ylmethyl)-N′-oxalyl-hydrazinol-2-hydroxypropionic acid [Example 5-13] | 

Compound | pKi | Ki
O=C(N[C@H](Cc1ccc(-c2cccc(Cl)c2)cc1)C[C@@H](O)C(=O)O)C(=O)OCCC(F)(F)F [Example 2N, (2R,4R)-5-(3′-Chlorobiphenyl-4-yl)-2-hydroxy-4-[(3,3,3-trifluoropropoxyoxalyl)-amino]pentanoic Acid] | ≥9 | 

From patent US10123984B2, “Neprilysin inhibitors” (THERAVANCE BIOPHARMA R&D IP, LLC, priority 2011, dated 2018)
